From article PMC10892818, “An Antiherpesviral Host-Directed Strategy Based on CDK7 Covalently Binding Drugs: Target-Selective, Picomolar-Dose, Cross-Virus Reactivity” (Pharmaceutics, 2024)
Read-outs that look alike come from different tables or passages of the source.

Assays:
[1] = tested on: GCV- or MBV-resistant HCMV variants (ORF-UL97 mutants); assay: HCMV reporter-based antiviral assays, series of GCV- or MBV-resistant variants; assay type: cell-based, human cytomegalovirus
Description: For the infection experiments, stocks of the following recombinant, reporter protein-expressing viruses (GFP or YFP (i.e., green or yellow fluorescent protein, respectively)) were propagated (in permissive cells), determined in their infectious titers performing the respective reporter assays, stored by aliquots at −80 °C, and used for the assessment of antiviral drug activities: human cytomegalovirus HCMV AD169-GFP (HFFs); murine cytomegalovirus MCMV C3X-GFP (MEFs); guinea pig cytomegalovirus GPCMV v403-GFP (GPEFs); human herpesvirus type 6A HHV-6A U1102-GFP (J-Jhan); herpes simplex virus type 1 HSV-1 166v VP22-GFP (HFFs); varicella zoster virus VZV Oka-GFP (HFFs); Epstein-Barr virus EBV Akata-GFP (Akata-BX1-GFP carrier cells; kindly provided by Lindsey Hutt-Fletcher and Rona Scott, Dept. Microbiol. […]
Due to the fact that the HCMV-encoded protein kinase pUL97 represents a functional and structural ortholog of the host CDKs (vCDK/pUL97), the viral mutants of ORF-UL97 were assessed for sensitivity against CDK7 inhibitors. […] These HCMVs (i.e., UL97 mutants C592G, H520Q (GCV-res.) L397R (MBV-res.) M460I, T409M, H411Y, C480F, F432S, C603W (GCV- and MBV-double res.), and H469V (not determined yet)) were used for comparative analysis in HCMV reporter-based antiviral assays.

[2] = tested on: HCMV UL97-H469V; parameters: method as in PMID 31940472; key: R-high, high-level drug resistance; R-int, intermediate-level drug resistance; R-low, low-level drug resistance; S, drug sensitivity; conditions: cited from earlier work
[3] = Neutral Red uptake assay (NRA), iSLK.219 cells; assay type: cell-based; conditions: human, read-out: CC50 (KSHV-GFP/RFP system)
Description: (§1) The virus recombinants VZV Oka-GFP and rKSHV.219-GFP/RFP were used for the infection of HFFs (VZV) or were continuously passaged in iSLK.219 carrier cells (KSHV), respectively, and cell viability was determined by NRA performed with uninfected HFFs or uninduced iSLK.219 cells, respectively. (A,B) Schematic depiction of the assay systems performed in a 96 well plate format. […] For the VZV-GFP system, virus stock VZV Oka-GFP was applied as a cell-bound infectious inoculum. After a 90 min period of inoculum adsorption to the cell surfaces, antiviral compounds were added to the culture media at serial dilutions (DMSO served as a solvent control for drug treatment of infected cells, while mock-infected cells served as a negative control). For the KSHV-GFP/RFP system, iSLK.219 cell lytic replication of KSHV (RFP reporter signal) was induced by the addition of 0.05 or 0.5 µg/mL doxycycline (dox) to the culture media. Cultivated dox-induced iSLK.219 cells were treated with antiviral compounds added at serial dilutions (DMSO served as a positive infection solvent control, while dox-untreated mock cells served as a negative control). HFFs or iSLK.219 cells were harvested at 4 d p.i. or 1 d after treatment, respectively, fixed by a 10 min incubation with 10% formalin, washed with PBS, and used for quantitation of the GFP or RFP reporter signal by PicoMD counting (ImageXpress® Pico device, Molecular Devices LLC, San Jose, CA, USA), with data evaluation using CellReporterXpress® software (version 2.9.3.1183, Molecular Devices LLC) as described earlier in [63]. (C) The antiviral activity of the reference drugs was determined with the VZV-GFP system in the 96 well format. EC50 values refer to measurements in quadruplicate, and the mean values ± SD of two experimental replicates are given. (D) The antiviral activity of the reference drugs was determined with the KSHV-GFP/RFP system in the 96 well format. EC50 values refer to measurements in triplicate, and the mean values ± SD are given for each of the two depicted experimental replicates.

[4] = tested on: rKSHV.219-GFP/RFP; assay: KSHV-GFP/RFP reporter assay in iSLK.219 cells; assay type: cell-based, Kaposi’s sarcoma-associated herpesvirus
Source text: The virus recombinants VZV Oka-GFP and rKSHV.219-GFP/RFP were used for the infection of HFFs (virus stock VZV Oka-GFP applied as a cell-bound inoculum as described before) or were continuously passaged in iSLK.219 carrier cells, respectively (Figure 1). The conditions of the GFP/RFP-based assays were adapted to both the 96 well (Figure 1A,B) and 12 well formats, and details including the assessment of antiviral reference drugs are given (Figure 1C,D).
as §1

SMILES: Nc1ccn(C[C@@H](CO)OCP(=O)(O)O)c(=O)n1 [CDV, cidofovir]
- drug resistance / sensitivity of the GCV- and MBV-resistant HCMVs [1]: all viruses showed sensitivity
- Reported phenotype UL97-H469V [2]: nd | nd | S

SMILES: Nc1nc(O)c2ncn(COC(CO)CO)c2n1 [GCV, ganciclovir]
- CC50 ([3]; marked 0.05 μg/mL dox): > 100000 nM
- CC50 ([3]; marked 0.5 μg/mL dox): > 100000 nM
- EC50 ([4]; Human gammaherpesvirus 8, read-out: KSHV EC50, iSLK.219, 96 well, induced with 0.05 μg/mL dox): 200 ± 100 nM
- EC50 ([4]; Human gammaherpesvirus 8, read-out: KSHV EC50, iSLK.219, 96 well, induced with 0.5 μg/mL dox): 200 nM
